# Reference: patent publication US7790762B2, “Compounds and methods for thiol-containing compound efflux and cancer treatment” (National Jewish Health, priority 2002, dated 2010)
# Read-outs that look alike come from different tables or passages of the source.
# Legend:
# HL-60 cells [1] = assay: Intracellular GSH levels by HPLC-EC in HL-60 cells; type: cell-based, human
# Description: (§1) Cell lines and culture conditions. Human lung epithelial cancer (A549), human leukemia HL-60 and human prostate (PC-3) tumor cells were purchased from ATCC (Manassas, Va.). A549 and PC-3 cells were grown in Ham's F12 medium (F12) and Kaighn's modification of Ham's F12 medium (F12K) with 2 mM L-glutamine (ATCC), respectively, supplemented with 10% fetal bovine serum (FBS) and 5% pen/strep (10,000 unit, Cellgro). HL-60 cells were grown in Iscove's modified Dulbecco's medium with 4 mM L-glutamine (ATCC) supplemented with 20% FBS and 5% pen/strep. Cell were grown in T-75 flask at 37° C. and 5% CO2 air atmosphere and in 24-well plates for GSH levels and LDH release measurements.
# (§2) Intracellular levels of GSH. Intracellular GSH levels can be determined by HPLC-EC. Cultured cells from 24-well plates were washed once with 1 ml of PBS and then re-suspended in 0.5 ml of distilled water with 40 μM of digitonin (2 mM stock solution in DMSO) for 30 min at room temperature. Then, 50 μl of 10% meta-phosphoric acid were added (1% final concentration), the samples were sonicated for 2 min, centrifuged at 20,000 g for 10 min, and 0.2 ml of supernatant placed in vials for HPLC analysis. […] The flow rate was […]. The retention time for GSH in these conditions was 7.5 min. The HPLC instrument was from ESA, Inc. (Chelmsford, Mass.), equipped with an autosampler (model 540) and a Coul array detector (model 5600A). The potential applied was +0.75 V vs. H/Pd electrode, and the injection volume 5 μl.
# PC-3 cells [2] = assay: Intracellular GSH levels by HPLC-EC in PC-3 cells; type: cell-based, human; settings: for activity at 25 µM: Homo sapiens, PC-3, 25 μM, 24 hours treatment, read-out: Int. GSH % con.
# Description: as §1, §2
# PC-3 cells [3] = assay: Cytotoxicity as LDH release in PC-3 cells; type: cell-based, human
# Description: as §1
# (§3) Assessment of cytotoxicity. In one exemplary method, membrane integrity of A549, HL-60 and PC-3 cells was used as an index of drug-induced cytotoxicity, and was assessed by monitoring the release of cytosolic lactate dehydrogenase (LDH). LDH activity was measured in the culture medium and cell lysates (50 mM HEPES, Triton X-100 0.5%, pH 7) using a plate reader format as previously described (41). Briefly, 5 μl of cell culture supernatant and lysates were incubated with 0.24 mM NADH in a Tris/NaCl pH 7.2 buffer in 96-well plates for 5 min at 25° C. The reaction was started by the addition of 9.8 mM pyruvate and the consumption of NADH followed at 340 nm for 5 min at 30° C. Percent LDH release was calculated by the following: (supernatant LDH/supernatant LDH+lysate LDH)×100.
# HL-60 cells [4] = assay: Cellular superoxide by flow cytometry with hydroethidine in HL-60 cells; type: cell-based, human
# Description: Flow cytometry. In one exemplary method, cellular superoxide (O2^−) was measured by flow cytometry analysis using hydroethidine (HE) (30). Untreated and treated HL-60 cells (approximately 10^6) were exposed to HE (1 μM from 1 mM stock solutions in DMSO) for 30 min, then were centrifuged at 3,500 g for 15 min, and washed once with 1 ml ice-cold PBS. Cells were re-suspended in 0.5 ml ice-cold PBS, and HE oxidation product, i.e., ethidium bromide (EB), analyzed within 30 min using the red channel (PE) of a FACSCalibur flow cytometer from Becton Dickinson Biosciences (San Jose, Calif.). The total number of cell counts was 25,000.
# A549 cells [5] = assay: Cytotoxicity as LDH release in A549 cells; type: cell-based, human; settings: for LDH release, % of control at 75 µM: Homo sapiens, A549, 75 μM, 48 hours treatment, read-out: LDH rel. % con.
# Description: as §1, §3
# HL-60 cells [6] = assay: Cytotoxicity as LDH release in HL-60 cells; type: cell-based, human; settings: for LDH release, % of control at 50 µM: Homo sapiens, HL-60, 50 μM, 48 hours treatment, read-out: LDH rel. % con.
# Description: as §1, §3
# A549 cells [7] = assay: Intracellular GSH levels by HPLC-EC in A549 cells; type: cell-based, human; settings: for activity at 25 µM: Homo sapiens, A549, 25 μM
# Description: as §1, §2
# A549 cells [8] = assay: Extracellular GSH in culture supernatants of A549 cells (HPLC-FD, mBBr); type: cell-based, human; settings: 25 μM, 2 hours of treatment (FIG. 19D)
# Description: Extracellular levels of GSH. Extracellular GSH in the culture media supernatants of A549, HL-60 and PC-3 cells were measured by an HPLC-FD method of GSH analysis after derivatization with monobromobimane (mBBr). […] The mixture was incubated in dark at room temperature for 30 min, and the reaction was stopped by addition of 10 μl of 70% perchloric acid. The samples were centrifuged at 16,000 g for 10 min and 0.18 ml of supernatant placed in vials for HPLC analysis. The HPLC column used was Synergi 4u Hydro-RP 80A (C18) (150×4.6 mm) from Phenomenex (Torrance, Calif.) and the mobile phase a mixture of 1% acetic acid in H2O (pH adjusted to 4.25 using NH4OH) with 7% acetonitrile. The flow rate was 1 ml·min^−1 and the injection volume 1 μl. The detector excitation and emission wavelengths were […], respectively. The retention time for the GSH derivative was 9.5 min.
# P-gp = settings: single dose; renal basement membrane, liver and intestine; cited from earlier work
# [9] = 2 h, read-out: Intracellular GSH levels, % compared to control
# [10] = 4 h, read-out: Intracellular GSH levels, % compared to control
# [11] = 24 hours treatment, read-out: Int. GSH % con.
structure (smiles),measurement,setting,value
"O=c1cc(-c2ccccc2)oc2cc(O)cc(O)c12 [Chrysin, 5,7 dihydroxyflavone]",effect on intracellular GSH (words),HL-60 cells [1]; HL-60 cells,one active flavone-like structure for inducing GSH depletion
same,intracellular GSH levels in presence of curcumin,HL-60 cells [1]; HL-60 cells (FIG. 20B),induced GSH depletion in presence of curcumin
same,depletion of intracellular GSH,"HL-60 cells [1]; HL-60 cells, 50 μM, 24 hours",50%
same,activity at 50 µM,"HL-60 cells [1]; Homo sapiens, HL-60, 50 μM, 24 hours treatment, read-out: Int. GSH % con.",40%
same,activity at 25 µM,PC-3 cells [2],51%
same,"intracellular GSH, combination with curcumin",PC-3 cells [2]; PC-3 cells (data not shown),resulted in GSH depletion
same,depletion of intracellular GSH,"PC-3 cells [2]; PC-3 cells, 25 μM, 24 hours",50%
same,"LDH release, % of control at 50 µM","PC-3 cells [3]; Homo sapiens, PC-3, 50 μM, 48 hours treatment, read-out: LDH rel. % con.",132%
same,"effect on curcumin-induced toxicity, LDH release","PC-3 cells [3]; PC-3 cells, 48 hours (FIG. 20C)",potentiated
same,"effect on the toxicities of rotenone (20 μM), 2-ME (50 μM) and etoposide (40 μM)","PC-3 cells [3]; PC-3 cells, 48 hours, compound 10-20 μM",potentiated
same,O2^− levels on adding compound to curcumin treatment,HL-60 cells [4]; HL-60 cells (FIG. 21B),"no increase of O2^− levels was observed, but rather a decrease after 4 hours"
same,O2^− levels,"HL-60 cells [4]; HL-60 cells, 25 μM (FIG. 21B)",little change in O2^− levels
same,effect on the toxicity of etoposide,"A549 cells [5]; A549 cells, 48 hours, etoposide (10 µM)",failed to potentiate etoposide's toxicity
same,toxicity,"A549 cells [5]; A549 cells, after 48 hours of treatment",relatively low toxicity
same,"LDH release, % of control at 75 µM",A549 cells [5],225%
same,toxicity,"HL-60 cells [6]; HL-60 cells, 25 μM (FIG. 20A)",not toxic
same,"effect on the toxicity of curcumin (25 μM), LDH release","HL-60 cells [6]; HL-60 cells, 48 hours, compound 25 μM (FIG. 20A)",potentiated the toxicity of curcumin
same,"LDH release, % of control at 50 µM",HL-60 cells [6],195%
same,effect on intracellular GSH (words),A549 cells [7]; A549 cells,very potent inducer of intracellular GSH depletion
same,depletion of intracellular GSH,"A549 cells [7]; A549 cells, 25 μM, 2 hours of treatment",50%
same,effect on intracellular GSH (words),"A549 cells [7]; A549 cells, listed as chrysin",one active flavone-like structure for inducing GSH depletion
same,activity at 25 µM,A549 cells [7]; [9],47.2 ± 4%
same,activity at 25 µM,A549 cells [7]; [10],5.2 ± 0.5%
same,activity at 25 µM,A549 cells [7]; [11],< 5%
"O=C(/C=C/c1ccccc1)c1ccccc1O [2′-HC, 2′-hydroxychalcone]",activity at 25 µM,"HL-60 cells [1]; Homo sapiens, HL-60, 25 μM, 24 hours treatment, read-out: Int. GSH % con.",< 5%
same,activity at 25 µM,PC-3 cells [2],93%
same,"LDH release, % of control at 25 µM","PC-3 cells [3]; Homo sapiens, PC-3, 25 μM, 48 hours treatment, read-out: LDH rel. % con.",227%
same,"LDH release, % of control at 75 µM",A549 cells [5],515%
same,"LDH release, % of control at 50 µM",HL-60 cells [6],320%
same,extracellular GSH levels,A549 cells [8],increased levels of GSH in the supernatants
same,activity at 25 µM,A549 cells [7]; [9],< 5%
same,activity at 25 µM,A549 cells [7]; [10],< 5%
same,activity at 25 µM,A549 cells [7]; [11],< 5%
"N.N.[Cl][Pt][Cl] [cisplatin, cis-dichlorodiammne platinum (II)]",induction of P-gp,P-gp,200-300 ×
